Laboratory results as given in publication PMC10850145, “Hormonal steroids induce multidrug resistance and stress response genes in Neisseria gonorrhoeae by binding to MtrR” (Nature Communications, 2024).
Values joined by “and” are separate entries in the source; they are usually repeats but may differ in a detail not shown here. Equal entries are not always repeated. Where two headings read alike, the source gives them in different places.

Test system: mtrC-lacZ expression
Format: cell-based, Neisseria gonorrhoeae
Details: for Miller units: single well; for mtrC-lacZ β-galactosidase activity, Mean: left block of sheet (mtrCDE)
[1] = second block of sheet (c39-c76), ΔmtrR + mtrR R176E in trans, 6.25 µM
[2] = second block of sheet (c39-c76), ΔmtrR + mtrR R176E in trans, 12.5 µM
[3] = second block of sheet (c39-c76), ΔmtrR + mtrR R176E in trans, 25 µM
[4] = second block of sheet (c39-c76), ΔmtrR + mtrR R176E in trans, 50 µM

Compound: C[C@]12CC[C@@H]3c4ccc(O)cc4CC[C@H]3[C@@H]1CC[C@@H]2O [β-Estradiol, β-estradiol]
- β-galactosidase activity, individual replicate (mtrR WT in cis, 50 µM hormone, single replicate values, second (right) block): 113 Miller units and 109 Miller units
- β-galactosidase activity, Miller units (single replicate) (mtrR WT in cis, 50 µM, first data set (c15-c36)): 196 Miller units and 185 Miller units and 161 Miller units
- β-galactosidase activity, Miller units (single replicate) (mtrR WT in cis, 50 µM, second data set (c53-c74)): 92 Miller units and 82 Miller units
- β-galactosidase activity, Mean [1]: 80 Miller units
- β-galactosidase activity, single replicate [1]: 96 Miller units and 78 Miller units and 89 Miller units and 60 Miller units
- β-galactosidase activity, Mean [2]: 81 Miller units
- β-galactosidase activity, single replicate [2]: 106 Miller units and 86 Miller units and 70 Miller units and 62 Miller units
- β-galactosidase activity, Mean [3]: 94 Miller units
- β-galactosidase activity, single replicate [3]: 126 Miller units and 96 Miller units and 86 Miller units and 68 Miller units
- β-galactosidase activity, Mean [4]: 89 Miller units
- β-galactosidase activity, single replicate [4]: 107 Miller units and 93 Miller units and 84 Miller units and 73 Miller units
- Miller units (plate rows 1-4, plate columns 1-6 (first strain), 6.25 µM hormone): 104 Miller units and 79 Miller units and 90 Miller units and 61 Miller units
- Miller units (plate rows 1-4, plate columns 1-6 (first strain), 12.5 µM hormone): 145 Miller units and 115 Miller units and 112 Miller units and 81 Miller units
- Miller units (plate rows 1-4, plate columns 1-6 (first strain), 25 µM hormone): 166 Miller units and 152 Miller units and 162 Miller units and 114 Miller units
- Miller units (plate rows 1-4, plate columns 1-6 (first strain), 50 µM hormone): 161 Miller units and 192 Miller units and 168 Miller units and 126 Miller units
- Miller units (plate rows 1-4, plate columns 7-12 (second strain), 12.5 µM hormone): 165 Miller units and 161 Miller units and 99 Miller units
- Miller units (plate rows 1-4, plate columns 7-12 (second strain), 25 µM hormone): 232 Miller units and 177 Miller units and 156 Miller units and 133 Miller units
- Miller units (plate rows 1-4, plate columns 7-12 (second strain), 50 µM hormone): 195 Miller units and 178 Miller units and 151 Miller units and 114 Miller units
- β-galactosidase activity, mtrC-lacZ, Mean (strain WT (FA19/pLES94-mtrC), hormone 6.25 µM): 131 Miller units
- β-galactosidase activity, mtrC-lacZ, Mean (strain WT (FA19/pLES94-mtrC), hormone 12.5 µM): 148 Miller units
- β-galactosidase activity, mtrC-lacZ, Mean (strain WT (FA19/pLES94-mtrC), hormone 25 µM): 177 Miller units
- β-galactosidase activity, mtrC-lacZ, Mean (strain WT (FA19/pLES94-mtrC), hormone 50 µM): 224 Miller units
- mtrC-lacZ β-galactosidase activity, Mean (strain WT, 6.25 µM hormone): 137 Miller units
- β-galactosidase activity, Mean (strain WT, 6.25 µM hormone, second (right) untitled block of sheet Figure S10 (mtrC)): 44 Miller units
- mtrC-lacZ β-galactosidase activity, Mean (strain WT, 12.5 µM hormone): 155 Miller units
- β-galactosidase activity, Mean (strain WT, 12.5 µM hormone, second (right) untitled block of sheet Figure S10 (mtrC)): 54 Miller units
- mtrC-lacZ β-galactosidase activity, Mean (strain WT, 25 µM hormone): 162 Miller units
- β-galactosidase activity, Mean (strain WT, 25 µM hormone, second (right) untitled block of sheet Figure S10 (mtrC)): 60 Miller units
- mtrC-lacZ β-galactosidase activity, Mean (strain WT, 50 µM hormone): 182 Miller units
- β-galactosidase activity, Mean (strain WT, 50 µM hormone, second (right) untitled block of sheet Figure S10 (mtrC)): 99 Miller units
- activation of mtrC (strain producing MtrR R176E): clearly weaker activation
- β-galactosidase activity, mtrC-lacZ, Mean (strain ΔmtrR (FA19 ∆mtrR/pLES94-mtrC), hormone 6.25 µM): 210 Miller units
- β-galactosidase activity, mtrC-lacZ, Mean (strain ΔmtrR (FA19 ∆mtrR/pLES94-mtrC), hormone 12.5 µM): 218 Miller units
- β-galactosidase activity, mtrC-lacZ, Mean (strain ΔmtrR (FA19 ∆mtrR/pLES94-mtrC), hormone 25 µM): 243 Miller units
- β-galactosidase activity, mtrC-lacZ, Mean (strain ΔmtrR (FA19 ∆mtrR/pLES94-mtrC), hormone 50 µM): 255 Miller units
- β-galactosidase activity, mtrC-lacZ, Mean (strain ΔmtrR + mtrR D171A (pGCC3-mtrR D171A), hormone 6.25 µM): 149 Miller units
- β-galactosidase activity, mtrC-lacZ, Mean (strain ΔmtrR + mtrR D171A (pGCC3-mtrR D171A), hormone 12.5 µM): 157 Miller units
- β-galactosidase activity, mtrC-lacZ, Mean (strain ΔmtrR + mtrR D171A (pGCC3-mtrR D171A), hormone 25 µM): 167 Miller units
- β-galactosidase activity, mtrC-lacZ, Mean (strain ΔmtrR + mtrR D171A (pGCC3-mtrR D171A), hormone 50 µM): 163 Miller units
- mtrC-lacZ β-galactosidase activity, Mean (strain ΔmtrR + mtrR R176E, 6.25 µM hormone): 194 Miller units
- β-galactosidase activity, Mean (strain ΔmtrR + mtrR R176E, 6.25 µM hormone, second (right) untitled block of sheet Figure S10 (mtrC)): 80 Miller units
- mtrC-lacZ β-galactosidase activity, Mean (strain ΔmtrR + mtrR R176E, 12.5 µM hormone): 205 Miller units
- β-galactosidase activity, Mean (strain ΔmtrR + mtrR R176E, 12.5 µM hormone, second (right) untitled block of sheet Figure S10 (mtrC)): 81 Miller units
- mtrC-lacZ β-galactosidase activity, Mean (strain ΔmtrR + mtrR R176E, 25 µM hormone): 197 Miller units
- β-galactosidase activity, Mean (strain ΔmtrR + mtrR R176E, 25 µM hormone, second (right) untitled block of sheet Figure S10 (mtrC)): 94 Miller units
- mtrC-lacZ β-galactosidase activity, Mean (strain ΔmtrR + mtrR R176E, 50 µM hormone): 269 Miller units
- β-galactosidase activity, Mean (strain ΔmtrR + mtrR R176E, 50 µM hormone, second (right) untitled block of sheet Figure S10 (mtrC)): 89 Miller units
- β-galactosidase activity, mtrC-lacZ, Mean (strain ΔmtrR + mtrR WT (pGCC3-mtrR), hormone 6.25 µM): 116 Miller units
- β-galactosidase activity, mtrC-lacZ, Mean (strain ΔmtrR + mtrR WT (pGCC3-mtrR), hormone 12.5 µM): 113 Miller units
- β-galactosidase activity, mtrC-lacZ, Mean (strain ΔmtrR + mtrR WT (pGCC3-mtrR), hormone 25 µM): 138 Miller units
- β-galactosidase activity, mtrC-lacZ, Mean (strain ΔmtrR + mtrR WT (pGCC3-mtrR), hormone 50 µM): 158 Miller units
- mtrC-lacZ β-galactosidase activity, Mean (strain ΔmtrR + mtrR WT, 6.25 µM hormone): 106 Miller units
- β-galactosidase activity, Mean (strain ΔmtrR + mtrR WT, 6.25 µM hormone, second (right) untitled block of sheet Figure S10 (mtrC)): 17 Miller units
- mtrC-lacZ β-galactosidase activity, Mean (strain ΔmtrR + mtrR WT, 12.5 µM hormone): 117 Miller units
- β-galactosidase activity, Mean (strain ΔmtrR + mtrR WT, 12.5 µM hormone, second (right) untitled block of sheet Figure S10 (mtrC)): 27 Miller units
- mtrC-lacZ β-galactosidase activity, Mean (strain ΔmtrR + mtrR WT, 25 µM hormone): 136 Miller units
- β-galactosidase activity, Mean (strain ΔmtrR + mtrR WT, 25 µM hormone, second (right) untitled block of sheet Figure S10 (mtrC)): 36 Miller units
- mtrC-lacZ β-galactosidase activity, Mean (strain ΔmtrR + mtrR WT, 50 µM hormone): 154 Miller units
- β-galactosidase activity, Mean (strain ΔmtrR + mtrR WT, 50 µM hormone, second (right) untitled block of sheet Figure S10 (mtrC)): 45 Miller units
- mtrC-lacZ β-galactosidase activity, Mean (strain ΔmtrR, 6.25 µM hormone): 273 Miller units
- β-galactosidase activity, Mean (strain ΔmtrR, 6.25 µM hormone, second (right) untitled block of sheet Figure S10 (mtrC)): 94 Miller units
- mtrC-lacZ β-galactosidase activity, Mean (strain ΔmtrR, 12.5 µM hormone): 263 Miller units
- β-galactosidase activity, Mean (strain ΔmtrR, 12.5 µM hormone, second (right) untitled block of sheet Figure S10 (mtrC)): 89 Miller units
- mtrC-lacZ β-galactosidase activity, Mean (strain ΔmtrR, 25 µM hormone): 239 Miller units
- β-galactosidase activity, Mean (strain ΔmtrR, 25 µM hormone, second (right) untitled block of sheet Figure S10 (mtrC)): 98 Miller units
- mtrC-lacZ β-galactosidase activity, Mean (strain ΔmtrR, 50 µM hormone): 257 Miller units
- β-galactosidase activity, Mean (strain ΔmtrR, 50 µM hormone, second (right) untitled block of sheet Figure S10 (mtrC)): 101 Miller units
- β-galactosidase activity, Miller units (single replicate) (ΔmtrR + mtrR WT in trans, 6.25 µM, first data set (c15-c36)): 87 Miller units and 127 Miller units
- β-galactosidase activity, Miller units (single replicate) (ΔmtrR + mtrR WT in trans, 6.25 µM, second data set (c53-c74)): 22 Miller units and 9 Miller units and 12 Miller units and 27 Miller units
- β-galactosidase activity, Miller units (single replicate) (ΔmtrR + mtrR WT in trans, 12.5 µM, first data set (c15-c36)): 84 Miller units and 130 Miller units
- β-galactosidase activity, Miller units (single replicate) (ΔmtrR + mtrR WT in trans, 12.5 µM, second data set (c53-c74)): 33 Miller units and 23 Miller units and 27 Miller units
- β-galactosidase activity, Miller units (single replicate) (ΔmtrR + mtrR WT in trans, 25 µM, first data set (c15-c36)): 124 Miller units and 127 Miller units
- β-galactosidase activity, Miller units (single replicate) (ΔmtrR + mtrR WT in trans, 25 µM, second data set (c53-c74)): 45 Miller units and 34 Miller units and 39 Miller units and 27 Miller units
- β-galactosidase activity, Miller units (single replicate) (ΔmtrR + mtrR WT in trans, 50 µM, first data set (c15-c36)): 156 Miller units and 168 Miller units
- β-galactosidase activity, Miller units (single replicate) (ΔmtrR + mtrR WT in trans, 50 µM, second data set (c53-c74)): 51 Miller units and 40 Miller units and 39 Miller units and 48 Miller units
- β-galactosidase activity, Miller units (single replicate) (ΔmtrR, 6.25 µM, first data set (c15-c36)): 214 Miller units and 261 Miller units and 306 Miller units and 310 Miller units
- β-galactosidase activity, Miller units (single replicate) (ΔmtrR, 6.25 µM, second data set (c53-c74)): 115 Miller units and 96 Miller units and 95 Miller units and 69 Miller units
- β-galactosidase activity, Miller units (single replicate) (ΔmtrR, 12.5 µM, first data set (c15-c36)): 280 Miller units and 263 Miller units and 247 Miller units and 264 Miller units
- β-galactosidase activity, Miller units (single replicate) (ΔmtrR, 12.5 µM, second data set (c53-c74)): 97 Miller units and 87 Miller units and 92 Miller units and 78 Miller units
- β-galactosidase activity, Miller units (single replicate) (ΔmtrR, 25 µM, first data set (c15-c36)): 208 Miller units and 262 Miller units and 216 Miller units and 271 Miller units
- β-galactosidase activity, Miller units (single replicate) (ΔmtrR, 25 µM, second data set (c53-c74)): 139 Miller units and 80 Miller units and 83 Miller units and 89 Miller units
- β-galactosidase activity, Miller units (single replicate) (ΔmtrR, 50 µM, first data set (c15-c36)): 240 Miller units and 239 Miller units and 224 Miller units and 327 Miller units
- β-galactosidase activity, Miller units (single replicate) (ΔmtrR, 50 µM, second data set (c53-c74)): 128 Miller units and 93 Miller units and 88 Miller units and 96 Miller units
